# Tests used:
# Assay type in all cases: in vivo
# DMRV model mice [1] = assay: Pathological observation of muscle tissue
# Method: (§1) 20 mg/kg body weight/day of ManNAc (N=6), NeuAc (N=5), or sialyllactose (N=7) dissolved in drinking water was administered to the DMRV model mice between 11- to 15-week old and 56- to 58-week old for 43 to 45 weeks. 40 mg (N=5) or 400 mg/kg body weight/day (N=4) of Ac4ManNAc dissolved in drinking water was administered to the DMRV model mice of the same ages for 43 to 47 weeks. Drinking water free of the pharmaceutical agents was supplied to mice in a placebo group.
# (§2) During the administration of the pharmaceutical agent, the measurement of the body weight, the determination of the survival rate, blood collection (0, 25, and 49 days after the start of administration, and thereafter at intervals of 28 days), and a hanging test (0 and 49 days after the start of administration, and thereafter at intervals of 56 days) were performed at regular intervals. Survivors after the administration (ManNAc-treated group: N=5, NeuAc-treated group: N=5, sialyllactose group: N=6) were subjected to a treadmill test. A muscle tissue was then excised and was subjected to a muscle contraction test, the measurement of the amount of NeuAc, and pathological observation.
# The gastrocnemius muscle used in the muscle contraction test was frozen in isopentane cooled by liquid nitrogen, and a frozen section having a thickness of 6 μm was prepared with a cryostat. The section was placed on a slide glass. Hematoxylin-eosin (H-E) staining, acid phosphatase activity staining (see Malicdan et al., Method. Enzymol., 453, 379-396, 2009), or Gomori trichrome staining (see Malicdan et al., Method. Enzymol., 453, 379-396, 2009) were performed on adjacent sections. These sections were observed under an optical microscope. A frozen section having a thickness of 10 μm prepared in the same manner as described above was fixed with 4% paraformaldehyde, was stained with congo red, and was observed under a fluorescence microscope.
# A frozen section having a thickness of 6 μm prepared in the same manner as described above was fixed with acetone and was blocked with a blocking solution (PBS containing 5% goat normal sera or 2% casein). The section was incubated with an anti-autophagy marker protein LC3 rabbit polyclonal antibody (NB100-2220, Novus Biologicals, 100 times dilution), an anti-β-amyloid rabbit polyclonal antibody (Aβ1-40, AB5074P, Chemicon, 100 times dilution), an anti-β-amyloid rabbit polyclonal antibody (Aβ1-42, AB5078P, Chemicon, 100 times dilution), an anti-phosphorylated tau mouse monoclonal antibody (90206, Innogenetics, 100 times dilution), an anti-amyloid mouse monoclonal antibody (6E10, Covance, 400 times dilution), an anti-p62 protein rabbit polyclonal antibody (PW9860, Biomol, 500 times dilution), or an anti-lysosome-associated membrane protein 2 (Lamp 2) rabbit polyclonal antibody (ABL-93, obtained from Developmental Studies Hybridoma Bank at the University of Iowa, 100 times dilution) at room temperature for one hour. If necessary, Alexa Fluor 488 or 568 labeled anti-rabbit/mouse IgG(H+L) (Molecular Probes) was used as a secondary antibody. Immunostained preparations of these sections were observed under a fluorescence microscope. The congo red staining and the LC3 labeling were performed on adjacent sections.
# It is known that rimmed vacuoles found in muscle tissues of a patient suffering from myopathy are positive for acid phosphatase. […] Tau protein is phosphorylated with amyloid β-protein. In myopathy caused by a mutation of the GNE gene, it is known that lysosomal vesicles that contain localized Lamp 2 protein are accumulated. It is also known that p62 protein recognizes polyubiquitin protein and directly binds to LC3 to induce autophagy in a portion that contains accumulated polyubiquitinated protein. In a muscle tissue affected by myopathy, p62 protein is colocalized with amyloid.
# DMRV model mice [2] = assay: Muscle contraction test; details: vs placebo group
# Method: as §1, §2
# After pentobarbital sodium (40 mg/kg body weight) was intraperitoneally administered to a mouse for anesthesia, a continuous muscle tissue of the tibialis anterior muscle and the gastrocnemius muscle was isolated. A terminal tendon of the isolated muscle tissue and the tibia were tied with a thread. The ends of the thread were connected at right angles to a tube for hanging a thread (a muscle length controller) and an isotonic transducer (TB-651T (for the gastrocnemius muscle) or TB-653TD-112S (for the tibialis anterior muscle), Nihon Kohden Corp.). The muscle tissue was placed in a lactated Ringer's solution (95% O2, 5% CO2). An electrostimulator (SEN-3301, Nihon Kohden Corp.) and an amplifier (PP-106H, Nihon Kohden Corp.) were used to expand the muscle tissue while providing 400 μs twitch stimulation. A length (L0) at which the maximum contractile force was produced and the contractile force (isometric contractile force: Pt) at that length were measured. While the muscle tissue was held at the length (L0) at which the contractile force was produced, the electrical stimulation was […] to 3 ms. The maximum contractile force (P0) was determined while 10- to 1000-Hz repetitive stimulation was provided 300 to 600 times at intervals of 2 minutes or more. After the measurement, the average cross-sectional area (CSA: muscle weight/L0) of the muscle tissue was calculated.
# DMRV model mice [3] = assay: Treadmill test, endurance test; details: vs placebo group
# Method: as §1, §2
# In order to familiarize a mouse with the apparatus, training was started one week prior to testing. In this period, the mouse was made to run on a slope of 7 degrees at a velocity in the range of 5 to 15 m/min for 30 minutes every day for 7 days. As a motor ability test, the velocity was increased by 10 m/min per minute from the initial velocity of 20 m/min. The accumulated running distance up to the point where the mouse could not run anymore was measured. As an endurance test, a mouse was made to run on a slope of 7 degrees at a velocity of 20 m/min for 60 minutes. The mouse was then made to run for another 3 minutes, during which the times of the electrical stimulation given to the mouse by a stimulation grid disposed at the end of the running lane were measured.
# DMRV model mice [4] = assay: Hanging test; details: 20 mg/kg body weight/day in drinking water; vs placebo group
# Method: as §1, §2
# A wire net having a 6-mm lattice pattern made of wires having a diameter of approximately 0.5 mm was placed on a tube having a height of 50 cm. A mouse was made to hang on the wire net, and the time elapsed before the mouse fell down was measured. The time was measured three times for each mouse.
# [5] = 20 mg/kg body weight/day in drinking water
# [6] = 20 mg/kg body weight/day in drinking water, vs placebo group
SMILES,acid phosphatase activity staining (DMRV model mice [1]; [5]),congo red staining (amyloid) (DMRV model mice [1]; [5]),labeling with the anti-phosphorylated tau antibody (DMRV model mice [1]; [5]),rimmed vacuoles and muscle cell atrophy (H-E staining) (DMRV model mice [1]; [5]),"labeling with the anti-amyloid antibodies (LC3, Aβ1-40, and Aβ1-42) (DMRV model mice [1]; [6])",Pt per cross-sectional area of the muscle (DMRV model mice [2]; [5]),cross-sectional area of the gastrocnemius muscle (DMRV model mice [2]; [5]),specific contractile force of the gastrocnemius muscle (P0 per cross-sectional area of the muscle) (DMRV model mice [2]; [5]),times of electrical stimulation for 3 minutes (DMRV model mice [3]; [5]),hanging time (DMRV model mice [4]),also measured
"CC(=O)N[C@@H]1C(OC(C)=O)O[C@H](COC(C)=O)[C@@H](OC(C)=O)[C@@H]1OC(C)=O (stereo partly drawn) [Ac4ManNAc, Tetra-O-acetyl-N-acetylmannosamine]",,,,,,,,,,,"Aβ1-42 labeling (DMRV model mice [1]; 40 mg/kg): negative; Lamp 2 staining (DMRV model mice [1]; 40 mg/kg): very slightly stained; acid phosphatase activity staining (DMRV model mice [1]; 40 mg/kg): dispersed sites that were positive; p62 protein labeling (DMRV model mice [1]; 40 mg/kg): negative; frequencies of rimmed vacuoles and muscular atrophy (DMRV model mice [1]; 40 mg/kg, vs placebo group): much lower; Aβ1-42 labeling (DMRV model mice [1]; 400 mg/kg): negative; Lamp 2 staining (DMRV model mice [1]; 400 mg/kg): negative; acid phosphatase activity staining (DMRV model mice [1]; 400 mg/kg): negative; p62 protein labeling (DMRV model mice [1]; 400 mg/kg): negative; rimmed vacuoles and muscle cell atrophy (DMRV model mice [1]; 400 mg/kg): no rimmed vacuole or muscle cell atrophy; specific contractile force of the gastrocnemius muscle (DMRV model mice [2]; 40 mg/kg): significantly higher; Pt per cross-sectional area of the muscle (DMRV model mice [2]; 400 mg/kg): significantly higher; specific contractile force of the gastrocnemius muscle (DMRV model mice [2]; 400 mg/kg): significantly higher; times of electrical stimulation for 3 minutes (DMRV model mice [3]; 40 mg/kg): significantly lower; times of electrical stimulation for 3 minutes (DMRV model mice [3]; 400 mg/kg): significantly lower"
"CC(=O)N[C@@H]1C(O)O[C@H](CO)[C@@H](O)[C@@H]1O (stereo partly drawn) [ManNAc, N-acetylmannosamine, reference compound]",negative,only the placebo group was fluorescently labeled,Only the placebo group was also labeled,no rimmed vacuole or muscle cell atrophy,markedly reduced,significantly higher,significantly higher,significantly higher,significantly lower,longer,
"CC(=O)N[C@H]1[C@H]([C@H](O)[C@H](O)CO)OC(O)(C(=O)O)C[C@@H]1O (stereo partly drawn) [NeuAc, N-acetylneuraminic acid]",negative,only the placebo group was fluorescently labeled,Only the placebo group was also labeled,no rimmed vacuole or muscle cell atrophy,markedly reduced,significantly higher,significantly higher,significantly higher,significantly lower,longer,
"CC(=O)N[C@H]1[C@H]([C@H](O)[C@H](O)CO)O[C@@](O[C@H]2[C@@H](O)[C@@H](CO)O[C@@H](O[C@H]3[C@H](O)[C@@H](O)C(O)O[C@@H]3CO)[C@@H]2O)(C(=O)O)C[C@@H]1O (stereo partly drawn) [sialyllactose, NeuAcα2-3Galβ1-4Glc]",negative,only the placebo group was fluorescently labeled,Only the placebo group was also labeled,no rimmed vacuole or muscle cell atrophy,markedly reduced,significantly higher,significantly higher,significantly higher,significantly lower,longer,

# Reference: patent publication US20120264928A1, “THERAPEUTIC PHARMACEUTICAL AGENT FOR DISEASES ASSOCIATED WITH DECREASE IN FUNCTION OF GNE PROTEIN, FOOD COMPOSITION, AND FOOD ADDITIVE” (JAPAN HEALTH SCIENCES FOUNDATION, priority 2009, published 2012)
